Results reported in patent publication US8835605B2, “Uses of cancer-targeting peptides in cancer diagnosis” (Academia Sinica, priority 2009, dated 2014).

Assays:
[1] = system: BT483 breast cancer xenografts; assay: In vivo binding (homing) of test phages to breast cancer xenografts, phage recovery from tissues; set-up: species or system SCID mice; settings: heart, lung; for recovery rates of phage from tumor tissues compared with normal organs: 10^9 pfu i.v., tumor vs brain, FIG. 1
Method: SCID mice were injected subcutaneously (s.c.) in the dorsolateral flank with 1×10^7 BT483 cells to induce breast cancer xenografts. The mice bearing xenograft tumors at a size of around 300 mm^3 were administered intravenously (i.v.) with one of the five test phages mentioned in Example 1 above (10^9 pfu) or a control phage. After perfusion, xenograft tumors and organs (i.e., brain, heart, and lung) were removed from each mouse and homogenized. The phages bound to each tissue sample were eluted, recovered using ER2738 bacterial cells as the host, and titered on IPTG/X-Gal agar plates, following the methods described in Lee et al., Cancer Res. 67:10958-10965 (2007) and Lo et al., Mol. Cancer. Ther 7:579-589 (2008).

[2] = system: cancer cells in the tissue samples (PC90 binding); assay: Peptide competition assay on cancer tissue samples; set-up: species or system human; settings: peptide 100 ng/ml with PC90 10^9 pfu
Method: (§1) Fresh breast cancer tissue samples were obtained from twenty patients having mammary infiltrating ducal carcinoma. Each of the tissue samples was sliced to 4 μm and fixed in 1% paraformaldehyde. The sliced tissue samples were then incubated with PC90 or a control phage. After being washed by PBS containing […] (PBST0.1), the samples were incubated with an anti-M13 mouse mAb (Amersham Biosciences, Piscataway, N.J., USA) for 1 hour at room temperature, washed again with PBST0.1, and the immunoreactivity of each sample was determined using a biotin-free super sensitive polymer-HRP detection system (Biogenex, San Ramon, Calif., USA), following the procedures described in Lee et al. (2004) and Lo et al. The slides, to which the tissue samples were attached, were counterstained with hematoxylin, mounted with Aquatex (Merck, Dannstadt, Germany), and examined by light microscopy. The percentage of the positively stained cells was determined following a method described in Hall et al., J. Pathol. 172:1-4 (1994).
The cancer targeting activity of PC90 was confirmed by a peptide competition assay, in which the cancer tissue samples were incubated with (1) the synthetic peptide (100 ng/ml) SMDPFLFQLLQL (SEQ ID NO:5) (SP90) and PC90 (10^9 pfu) or (2) the control peptide (100 ng/ml) RLLDTNRPLLPY (SEQ ID NO:6; see Lee et al., Cancer Res. 64:8002-8008, 2004) and PC90. […]

[3] = system: breast tumor xenografts (PC90 binding); assay: In vivo competition: peptide co-injected with PC90, immunostaining of tumor tissues; set-up: species or system mice; settings: 100 μg peptide co-injected with PC90
Method: SP90 was co-administered to test its ability of blocking PC90 from binding to the tumor tissues. Briefly, 100 μg SP90 or the control peptides described above were co-injected with PC90 to mice bearing breast tumor xenografts. The normal organs and tumor tissues were removed and fixed in Bouin's solution (Sigma, Mo., USA). After fixation, the samples were embedded in paraffin blocks, sliced to sections, and the sections were deparaffinized, rehydrated, and subjected to immunostaining using the mouse anti-M13 mAb described in Example 1 above.

[4] = system: breast cancer tissue samples (mammary infiltrating ducal carcinoma); assay: Immunostaining of patient breast cancer biopsy samples with phage; set-up: species or system human; settings: biopsy samples from twenty patients; anti-M13 immunostaining
Method: as §1

## EATNSHGSRTMG (SEQ ID NO: 2) [PC65]
[1]
  recovery rates of phage from tumor tissues compared with normal organs: much higher

## QLEFYTQLAHLI (SEQ ID NO: 4) [PC82]
[1]
  recovery rates of phage from tumor tissues compared with normal organs: much higher

## QNIYAGVPMISF (SEQ ID NO: 1) [PC34]
[1]
  recovery rates of phage from tumor tissues compared with normal organs: much higher

## RLLDTNRPLLPY (SEQ ID NO:6) [control peptide, synthetic control peptide, see Lee et al., Cancer Res. 64:8002-8008, 2004, reference compound]
[2]
  competition against PC90 for binding to cancer cells in tissue samples: not
[3]
  inhibition of PC90 binding to the tumor tissues (words): did not exhibit any inhibitory activity

## SMDPFLFQLLQL (SEQ ID NO:5) [SP90, synthetic peptide …]
[2]
  competition against PC90 for binding to cancer cells in tissue samples: competed against PC90 for binding to the cancer cells
[3]
  inhibition of PC90 binding to the tumor tissues: 97%
  inhibition of PC90 binding to the tumor tissues (words): significantly inhibited

## SMDPFLFQLLQL (SEQ ID NO: 5) [PC90]
[1]
  recovery rates of phage from tumor tissues compared with normal organs: much higher
[1]; i.v., tumor xenografts vs brain
  targeting of tumor xenografts and normal organs: bound to cancer cells in the tumor xenografts but not to normal organs
[4]
  patients determined as carrying breast cancer cells: 18 out of the 20

## TVSWSTTGRIPL (SEQ ID NO: 3) [PC73]
[1]
  recovery rates of phage from tumor tissues compared with normal organs: much higher
